{"source": "paper PMC5051147", "about": "“Ester Hydrolysis Differentially Reduces Aconitine-Induced Anti-hypersensitivity and Acute Neurotoxicity: Involvement of Spinal Microglial Dynorphin Expression and Implications for Aconitum Processing” (Frontiers in Pharmacology, 2016)", "key": {"mice": {"tested_on": "mice", "details": "intravenous injection in mice; ref Mizugaki and Ito, 2005; cited from earlier work"}, "[1]": {"tested_on": "heat hyperalgesia in spinal L5/L6 nerve–ligated neuropathic rats", "test": "Heat hyperalgesia (radiant heat paw withdrawal latency) after intrathecal injection in spinal nerve-ligated neuropathic rats", "format": "in vivo, rat", "procedure": "(§1) An 18-cm polyethylene catheter (PE-10: 0.28-mm inner diameter and 0.61-mm outer diameter, Clay Adams, Parsippany, NJ, USA) with a volume of 13 μL was inserted into the lumbar level of the spinal cord as described elsewhere under inhalational isoflurane anesthesia (4% for induction and 1% for maintenance) run by an anesthesia meter (Ugo Basile Gas Anesthesia System, Comerio, Italy). Two days after recovery from anesthesia, the placement of the catheter in the spinal cord was verified by administration of 4% lidocaine (10 μL, followed by 15 μL of saline for flushing). Rats that had no motor impairment after placement of the intrathecal catheter were considered for the study, and rats that developed immediate bilateral paralysis of the hindlimbs after intrathecal administration of lidocaine were selected for the study. For intrathecal administration of the control and test articles, 10 μL of each drug was injected with a 50-μL microinjector (Shanghai Anting Micro-Injector Factory, Shanghai, China) and was flushed with 15 μL of normal saline solution.\nTo induce hypersensitivity to neuropathic pain, the rats were subjected to spinal nerve ligation as previously described [Kim and Chung (1992)] and [Zhang et al. (2013)]. Unilateral ligation of the L5 and L6 spinal nerves was performed under inhalational isoflurane anesthesia (4% for induction and 1% for maintenance) run by an anesthesia meter (Ugo Basile Gas Anesthesia System). The left L5 and L6 spinal nerves were isolated and tightly ligated with 6-0 silk thread. After ligation, the wound was sutured and the rats were returned to their home cages for recovery. After spinal nerve ligation, only those rats with marked unilateral allodynia to mechanical stimulation (i.e., a hindpaw withdrawal threshold of less than 8 g on the operated side) and with no major impairment were included in the study. Drug testing started 2–4 weeks after spinal nerve ligation.\nTo assess heat hyperalgesia, the rats were put in a plexiglass box on an elevated glass surface. After an adaptation period of at least 30 min, radiant heat was applied to the plantar medial surface of each hindpaw. The hindpaw withdrawal latency was measured with a Model 390G Plantar Test Analgesia Meter (IITC Life Science Inc.). To prevent tissue damage, the latency cutoff was set at 30 s. The paw withdrawal latency was defined as the time from the onset of radiant heat application to the withdrawal of the hindpaw. Both hindpaws were tested independently three times with a 5-min interval between trials. The result for each test was calculated as the mean of the three repeated measurements.\nThe percentage of maximal possible effect (% MPE) was calculated using the following formula: (postdrug threshold in ipsilateral hindlimb – baseline threshold in ipsilateral hindlimb)/(baseline threshold in contralateral hindlimb – baseline threshold in ipsilateral hindlimb) × 100 ([Bowersox et al., 1996]). A % MPE value near 100 indicates normal mechanical thresholds (i.e., near contralateral thresholds), and a value near 0 indicates allodynia. For the dose-response curve analysis, the parameters (i.e., minimum effect; Emax, median effective concentration or dose, or median toxic or lethal dose [EC50, ED50, TD50, or LD50], and Hill coefficient [n]) were calculated from the individual dose-response curves using the Prism program (version 5.01, GraphPad Software, San Diego, CA, USA). […]"}, "[2]": {"tested_on": "spinal nerve–ligated neuropathic rats", "test": "Acute spinal neurotoxicity (flaccid paralysis and death) after intrathecal injection", "format": "in vivo, rat", "procedure": "as §1\nSurvival and abnormal motor-blockade behaviors, including asthma, abdominal breathing, locomotion difficulty, and paralysis, were continuously monitored for 24 h after the treatment, with special attention given during the first 4 h. Paralysis was defined as an inability to negotiate a 60-degree inclined plane ([Durant and Yaksh, 1986]). Death was defined as respiratory arrest over a period of 5 min. The paralysis and mortality rates and their latencies were quantitatively recorded and tabulated.\n(§2) The percentage of maximal possible effect (% MPE) was calculated using the following formula: (postdrug threshold in ipsilateral hindlimb – baseline threshold in ipsilateral hindlimb)/(baseline threshold in contralateral hindlimb – baseline threshold in ipsilateral hindlimb) × 100 ([Bowersox et al., 1996]). A % MPE value near 100 indicates normal mechanical thresholds (i.e., near contralateral thresholds), and a value near 0 indicates allodynia. For the dose-response curve analysis, the parameters (i.e., minimum effect; Emax, median effective concentration or dose, or median toxic or lethal dose [EC50, ED50, TD50, or LD50], and Hill coefficient [n]) were calculated from the individual dose-response curves using the Prism program (version 5.01, GraphPad Software, San Diego, CA, USA). To determine the parameters of the dose-response curves, the values of response (Y) were fitted by non-linear least-squares curves to the relation Y = a + bx, where x = [D]^n/(ED50^n + [D]^n), [C]^n/(EC50^n + [C]^n), [D]^n/(TD50^n + [D]^n) or [D]^n/(LD50^n + [D]^n), to give each value of ED50, EC50, TD50, or LD50 and b (Emax) yielding a minimum residual sum of squares of deviations from the theoretical curve ([Wang and Pang, 1993])."}, "[3]": {"tested_on": "pain hypersensitivity in spinal nerve-ligated neuropathic rats", "test": "Anti-hypersensitivity, normalized (anti-allodynia and anti-hyperalgesia ED50 averaged)", "format": "in vivo, rat", "details": "intrathecal; average of allodynia and hyperalgesia ED50", "procedure": "as §2\nTable 1 summarizes the ED50 values in mole base for aconitine, benzolyaconine, and aconine to block pain hypersensitivity. Because anti-allodynia and anti-hyperalgesia were closely correlated, their ED50 values were averaged to obtain a normalized ED50 for anti-hypersensitivity. The ED50 ratios for aconitine and benzolyaconine to block mechanical allodynia and heat hyperalgesia were 1:92 and 1:110, with a normalized ED50 ratio of 1:102."}, "[4]": {"details": "intrathecal bolus, observed 24 h"}}, "data": [{"smiles": "CCN1C[C@]2(COC)[C@H](O)C[C@H](OC)[C@@]34[C@@H]5C[C@@]6(O)[C@H](OC(=O)c7ccccc7)[C@@H]5[C@@](OC(C)=O)([C@@H]([C@H](OC)[C@H]23)[C@@H]14)[C@@H](O)[C@@H]6OC", "note": "[Aconitine, aconitine]", "values": [{"measurement": "LD50", "setting": "mice", "value": 0.12, "unit": "mg/kg"}, {"measurement": "Emax, blockade of thermal hyperalgesia", "setting": "[1]; 1 h after injection", "value": 100, "unit": "% MPE"}, {"measurement": "ED50, blockade of thermal hyperalgesia", "setting": "[1]; % MPE at 1 h after injection", "value": 32, "unit": "pmol"}, {"measurement": "Duration of toxic motor-blockade behavior", "setting": "[2]; intrathecal", "value": "5 to 10", "unit": "min"}, {"measurement": "Latency of toxic motor-blockade behavior", "setting": "[2]; intrathecal", "value": "2 to 3", "unit": "min"}, {"measurement": "Death latency", "setting": "[2]; intrathecal 0.25 μg", "value": 13.6, "unit": "min"}, {"measurement": "Paralysis latency", "setting": "[2]; intrathecal 0.25 μg", "value": "2.3 ± 0.7", "unit": "min"}, {"measurement": "Death latency", "setting": "[2]; intrathecal 0.32 μg", "value": "12.4 ± 2.3", "unit": "min"}, {"measurement": "Paralysis latency", "setting": "[2]; intrathecal 0.32 μg", "value": "2.5 ± 0.8", "unit": "min"}, {"measurement": "Death latency", "setting": "[2]; intrathecal 0.4 μg", "value": "10.0 ± 3.3", "unit": "min"}, {"measurement": "Paralysis latency", "setting": "[2]; intrathecal 0.4 μg", "value": "2.6 ± 1.2", "unit": "min"}, {"measurement": "LD50 (mortality)", "setting": "[2]; [4]", "value": 0.6, "unit": "nmol"}, {"measurement": "TD50 (for flaccid paralysis)", "setting": "[2]; [4]", "value": 0.4, "unit": "nmol"}, {"measurement": "Normalized TD50", "setting": "[2]; intrathecal, average of TD50 (paralysis) and LD50", "value": 0.5, "unit": "nmol"}, {"measurement": "Normalized ED50 for anti-hypersensitivity", "setting": "[3]", "value": 35, "unit": "pmol"}]}]}
